Here are results for 76 sequences from the OligoGym collection.

The data set has as its target IRF4. The conditions noted are these: ASO.

“And” between values parts separate entries of the source, which are not always exact repeats. Equal values may be shown once. After the bases stand the sugars from the 5' end (letter, count) and the backbone: PS all phosphorothioate, else s phosphorothioate and o phosphodiester by linkage. Methylation of C is not given here. e = 2'-O-(2-methoxyethyl) (MOE); k = constrained ethyl (cEt); d = 2'-deoxy (DNA)

“AGCATTTTATCATCCG (sugars e1 k2 d9 k2 e2, PS)”: under “MM.1R, 1 µM”, the target mRNA inhibition turned out to be 43%.

On to “AGCATTTTATCATCCG (sugars k2 d9 e3 k2, PS)”, for which the target mRNA inhibition (MM.1R, 1 µM) turned out to be 28%. For “AGCATTTTATCATCCG (sugars k3 d9 k3 e1, PS)”, the target mRNA inhibition (MM.1R, 0.074 µM) came out at 17%; the target mRNA inhibition (MM.1R, 0.222 µM) turned out to be 32%; the target mRNA inhibition (MM.1R, 0.666 µM) was 61%; the target mRNA inhibition (MM.1R, 1 µM) stood at 66%; the target mRNA inhibition (MM.1R, 2 µM) came out at 83%. For the sequence “AGCATTTTATCATCCG (sugars kdddddddddkekeke, PS)”, the target mRNA inhibition (MM.1R, 1 µM) is 24%. For the sequence “AGCATTTTATCATCCG (sugars kkddddddddddkeke, PS)”, for the setting “MM.1R, 1 µM”, the target mRNA inhibition came to 33%. For the sequence “AGCATTTTATCATCCG (sugars kkdddddddddkdkdk, PS)”, the target mRNA inhibition (MM.1R, 1 µM) was determined as 11%. Still for that read-out and setting: the result for “AGCATTTTATCATCCG (sugars kkdddddddddkekek, PS)” reads 39%. With AGCCAGAGGTTCGCTG (sugars k3 d10 k3, PS), the target mRNA inhibition (SK-MEL-28, 4 µM) was found to be 25%. With AGCCAGTGCCAGTTCC (sugars k3 d10 k3, PS), the target mRNA inhibition (SK-MEL-28, 4 µM) turned out to be 39%.

On to AGCCGCTACAGCTTCT (sugars k3 d10 k3, PS), for which the target mRNA inhibition (SK-MEL-28, 4 µM) is -8%. In the case of AGCCTTCCTGCTCAGA (sugars k3 d10 k3, PS), under “SK-MEL-28, 4 µM”, the target mRNA inhibition was 55%. AGCGAAGGGTAAGGCG (sugars k3 d10 k3, PS): the target mRNA inhibition (SK-MEL-28, 4 µM) was 14%. Same read-out and setting: the result for AGCTAACTGGCCTCAA (sugars k3 d10 k3, PS) reads 23%. With AGCTACGCAATCTTCT (sugars k3 d10 k3, PS), for the setting “SK-MEL-28, 4 µM”, the target mRNA inhibition turned out to be 47%. On to AGCTCATCTGCCAATC (sugars k3 d10 k3, PS), for which the target mRNA inhibition (SK-MEL-28, 4 µM) came out at 33%.

Consider AGCTCCACTGTTAAAG (sugars k3 d10 k3, PS), for which the target mRNA inhibition (SK-MEL-28, 4 µM) is 44%. As to AGCTCCTACATACATT (sugars k3 d10 k3, PS), where the note is “SK-MEL-28, 4 µM”, the target mRNA inhibition was 44%. For the sequence AGCTCTAGACAGAGGC (sugars k3 d10 k3, PS), for the setting “SK-MEL-28, 4 µM”, the target mRNA inhibition came out at 35%. On to AGCTGACCATGTTACA (sugars k3 d10 k3, PS), for which the target mRNA inhibition (SK-MEL-28, 4 µM) was -19%. For the sequence AGCTGATGGAGAAACG (sugars k3 d10 k3, PS), for the setting “SK-MEL-28, 4 µM”, the target mRNA inhibition is 10%. Same read-out and setting: to AGCTGGTAGGTCAAAC (sugars k3 d10 k3, PS) belongs -5%; to AGCTTCTTTGAAGTGC (sugars k3 d10 k3, PS), 62%. On to “AGCTTGATAAAGGCTG (sugars k3 d9 k3 e1, PS)”, for which the target mRNA inhibition (MM.1R, 1 µM) was determined as 2%. As to AGGAAACTTGGAGCGC (sugars k3 d10 k3, PS), the target mRNA inhibition runs as follows: (MM.1R, 0.0625 µM) -1%; (MM.1R, 0.25 µM) 2%; (MM.1R, 1 µM) 15%; (MM.1R, 4 µM) 42%; (SK-MEL-28, 4 µM) 77%. Regarding AGGAACGAAGAGCAGG (sugars k3 d10 k3, PS), the target mRNA inhibition (SK-MEL-28, 4 µM) stood at 43%. Still for that read-out and setting: the result for AGGAACTGACCTAACT (sugars k3 d10 k3, PS) reads 31%; that for AGGACAATGGAGATAC (sugars k3 d10 k3, PS), 72%. As for AGGACACTCACAGGCG (sugars k3 d10 k3, PS), the target mRNA inhibition (MM.1R, 1 µM) worked out at 8%.

For “AGGCACATCAATGTTT (sugars kdddddddddkekeke, PS)”, the target mRNA inhibition (MM.1R, 1 µM) was -9% and 3%. As to AGGCACCGCACTCCGG (sugars k3 d10 k3, PS), the target mRNA inhibition (MM.1R, 1 µM) is -13%. With AGGCACTTACTAGGTG (sugars k3 d10 k3, PS), the target mRNA inhibition (SK-MEL-28, 4 µM) came to 54%. In the case of AGGCAGTTGTGCCGTC (sugars k3 d10 k3, PS), the target mRNA inhibition (SK-MEL-28, 4 µM) was -62%. With AGGCTCGGGCAGAGCC (sugars k3 d10 k3, PS), the target mRNA inhibition (SK-MEL-28, 4 µM) worked out at 1%. Take AGGGACCGCGCCAGGC (sugars k3 d10 k3, PS): where the note is “MM.1R, 1 µM”, the target mRNA inhibition amounted to 0%. Regarding AGGTAAAGGCACATTC (sugars k3 d10 k3, PS), where the note is “SK-MEL-28, 4 µM”, the target mRNA inhibition was found to be 19%. With AGGTAATCTGTATAGT (sugars k3 d10 k3, PS), the target mRNA inhibition (SK-MEL-28, 4 µM) came to 62%. Consider AGTAACTGACACGCAC (sugars k3 d10 k3, PS), for which the target mRNA inhibition (SK-MEL-28, 4 µM) was found to be 51%. As for AGTACAGTCCACTCCA (sugars k3 d10 k3, PS), the target mRNA inhibition (MM.1R, 1 µM) turned out to be 7%.

On to “AGTATGAGAAACGGCC (sugars k2 d9 e3 k2, PS)”, for which the target mRNA inhibition (MM.1R, 1 µM) amounted to 16%.

For “AGTATGAGAAACGGCC (sugars kdddddddddkekeke, PS)”, the target mRNA inhibition (MM.1R, 1 µM) was 4%. In the case of AGTCAAGCCCCAAGCC (sugars k3 d10 k3, PS), the target mRNA inhibition (SK-MEL-28, 4 µM) was 13%.

On to AGTCAATCACTGGAGA (sugars k3 d10 k3, PS), for which the target mRNA inhibition was 1% and -8% (MM.1R, 0.0625 µM); 0% (MM.1R, 0.074 µM); -15% (MM.1R, 0.222 µM); 4% and 5% (MM.1R, 0.25 µM); -7% (MM.1R, 0.666 µM); 16% and 22% (MM.1R, 1 µM). Further, the target mRNA inhibition was 9% (MM.1R, 2 µM); 40% and 45% (MM.1R, 4 µM); 60% (SK-MEL-28, 4 µM). AGTCACCTGGAATCTT (sugars k3 d10 k3, PS): the target mRNA inhibition (SK-MEL-28, 4 µM) came to 47%. Take AGTGAAGTCGGGAGAT (sugars k3 d10 k3, PS): under “MM.1R, 1 µM”, the target mRNA inhibition stood at 8%.

Take “AGTGACTTGCATCCAT (sugars kkddddddddddkeke, PS)”: the target mRNA inhibition (MM.1R, 1 µM) was found to be 50%. Still for that read-out and setting: the result for “AGTGACTTGCATCCAT (sugars kkdddddddddkdkdk, PS)” reads 22%. Consider AGTGATAGGTATACTT (sugars k3 d10 k3, PS), for which the target mRNA inhibition (SK-MEL-28, 4 µM) was found to be 39%.

Regarding “AGTTGTAAATGAGTCG (sugars k2 d9 e3 k2, PS)”, the target mRNA inhibition (H929, 0.04 µM) was 57% and 42%; the target mRNA inhibition (KMS11, 0.2 µM) was 86% and 92%; the target mRNA inhibition (MM.1R, 0.074 µM) was 10%; the target mRNA inhibition (MM.1R, 0.222 µM) was determined as 25%; the target mRNA inhibition (MM.1R, 0.666 µM) turned out to be 55%; the target mRNA inhibition (MM.1R, 1 µM) was 66%. For the same sequence, the target mRNA inhibition (MM.1R, 2 µM) was 77%.

Regarding “AGTTGTAAATGAGTCG (sugars kddddddddddkekek, PS)”, the target mRNA inhibition (MM.1R, 1 µM) was found to be 44%. For the sequence “AGTTGTAAATGAGTCG (sugars kkdddddddddekeke, PS)”, the target mRNA inhibition was 17% (MM.1R, 0.074 µM); 44% (MM.1R, 0.222 µM); 67% (MM.1R, 0.666 µM); 73% (MM.1R, 1 µM); 86% (MM.1R, 2 µM).

On to AGTTTGTGAAGCATCC (sugars k3 d10 k3, PS), for which the target mRNA inhibition (SK-MEL-28, 4 µM) amounted to 69%. With ATAAACACCCCTTCTT (sugars k3 d10 k3, PS), the target mRNA inhibition (SK-MEL-28, 4 µM) was 30%. Consider ATAACACGGTGTTGAC (sugars k3 d10 k3, PS), for which the target mRNA inhibition (MM.1R, 1 µM) worked out at 21%. Turning to ATAACCGGTAGAGTGA (sugars k3 d10 k3, PS), under “SK-MEL-28, 4 µM”, the target mRNA inhibition was 50%. For ATAATATAGTTGTCTG (sugars k3 d10 k3, PS), the target mRNA inhibition (SK-MEL-28, 4 µM) turned out to be 35%. Consider ATACACACCCTCGGGC (sugars k3 d10 k3, PS), for which the target mRNA inhibition (MM.1R, 1 µM) was -10%.

Consider ATAGAATTAGGTGCTT (sugars k3 d10 k3, PS), for which the target mRNA inhibition (MM.1R, 0.0625 µM) is -5%; the target mRNA inhibition (MM.1R, 0.074 µM) is -1%; the target mRNA inhibition (MM.1R, 0.222 µM) amounted to 33%; the target mRNA inhibition (MM.1R, 0.25 µM) came out at 6%; the target mRNA inhibition (MM.1R, 0.666 µM) came out at 11%; the target mRNA inhibition (MM.1R, 1 µM) stood at 25%. Besides, the target mRNA inhibition by setting is: (MM.1R, 2 µM) 8%; (MM.1R, 4 µM) 56%; (SK-MEL-28, 4 µM) 64%. Turning to ATAGAGCATCACTATT (sugars k3 d10 k3, PS), the target mRNA inhibition (MM.1R, 1 µM) worked out at 0%. As to ATAGATCTGTGGTAAT (sugars k3 d10 k3, PS), under “SK-MEL-28, 4 µM”, the target mRNA inhibition amounted to 38%. Take ATAGCTGAGCTGATCA (sugars k3 d10 k3, PS): the target mRNA inhibition (MM.1R, 1 µM) is 30%. On to ATAGCTGTTTATTTCC (sugars k3 d10 k3, PS), for which the target mRNA inhibition runs as follows: (MM.1R, 0.074 µM) 7%; (MM.1R, 0.222 µM) 12%; (MM.1R, 0.666 µM) 24%; (MM.1R, 2 µM) 50%; (SK-MEL-28, 0.185 µM) 13%; (SK-MEL-28, 4 µM) 62%. For the same sequence, the target mRNA inhibition by setting is: (SK-MEL-28, 5 µM) 75%; (SK-MEL-28, 15 µM) 90%. For ATAGGTATACTTAAGC (sugars k3 d10 k3, PS), the target mRNA inhibition (SK-MEL-28, 4 µM) is 80% and 79%. For ATAGTTAAGTACTTGG (sugars k3 d10 k3, PS), the target mRNA inhibition (SK-MEL-28, 4 µM) turned out to be 48%.

ATATAGAATTAGGTGC (sugars k3 d10 k3, PS): under “SK-MEL-28, 4 µM”, the target mRNA inhibition was found to be 16%.

In the case of ATATAGTTGTCTGGCT (sugars k3 d10 k3, PS), the target mRNA inhibition (SK-MEL-28, 4 µM) came out at 41%. On the same count and under the same terms, the result for ATATATGACGACTTAA (sugars k3 d10 k3, PS) reads 6%; that for ATATCCTGTAGTATGA (sugars k3 d10 k3, PS), 57%. As for ATATGGCTAAACCTGG (sugars k3 d10 k3, PS), the target mRNA inhibition (MM.1R, 1 µM) was 18%.

Regarding ATATTAGAGACTGTAT (sugars k3 d10 k3, PS), for the setting “SK-MEL-28, 4 µM”, the target mRNA inhibition came out at 25%. Regarding ATCACCGAACACACCA (sugars k3 d10 k3, PS), where the note is “MM.1R, 1 µM”, the target mRNA inhibition is -12%. With ATCAGAATGTTTCGAC (sugars k3 d10 k3, PS), the target mRNA inhibition (SK-MEL-28, 4 µM) turned out to be 46%. In the case of ATCATCCGAAAAGACT (sugars k3 d10 k3, PS), where the note is “MM.1R, 1 µM”, the target mRNA inhibition amounted to 4%. Consider ATCCCTTATTAGACTG (sugars k3 d10 k3, PS), for which, where the note is “MM.1R, 1 µM”, the target mRNA inhibition is -7%. In the case of ATCGAATCTGCCCAAA (sugars k3 d10 k3, PS), the target mRNA inhibition (SK-MEL-28, 4 µM) was 26%. In the case of ATCTAAGGCAAGCTGA (sugars k3 d10 k3, PS), the target mRNA inhibition (SK-MEL-28, 4 µM) is 37%.

ATCTACCTCAGTTTGT (sugars k3 d10 k3, PS): the target mRNA inhibition (SK-MEL-28, 4 µM) worked out at 42%.
